Test results taken from paper PMC5978884, “Dissection of the antimicrobial and hemolytic activity of Cap18: Generation of Cap18 derivatives with enhanced specificity” (PLoS ONE, 2018).
Where no end group is shown, it is not given here.

Key:
Assay type in all cases: cell-based
[1] = test system: Listeria monocytogenes N22-2
Experimental: (§1) All strains were grown in Mueller-Hinton-II medium, except L. monocytogenes which was grown in BHI medium and L. lactis which was grown in MRS medium. Incubation took place aerobically at 37°C, except for Y. ruckeri and A. salmonicida, which were grown aerobically at RT (20 °C), and L. lactis grown aerobically at 30°C. All plates were incubated for 16–21 hours.
(§2) The minimum inhibitory concentrations (MICs) of the AMPs were measured in 96-well microtiter plates according the Clinical and Laboratory Standards Institute (CLSI, formerly National Committee for Clinical Laboratory Standards [NCCLS]). Briefly, liquid Mueller-Hinton-II medium containing increasing concentrations of AMPs is inoculated with a defined number of cells (approx. 10^5 CFUs/ml) in 96-well microtiter plates (polypropylene), whereas each plate also includes a positive growth control and a negative control (sterile control). The range of peptide concentrations analyzed was 0.125–64 μg/ml for the high purity peptides and 0.06–32 μg/ml for peptides of the variant library. After incubation, the MIC is determined by the lowest concentration showing no visible growth. All plates were incubated for 16–20 hours. The MIC of the reference antibiotics was determined by the use of Sensititre panels (Trek Diagnostic Systems Ltd, East Grinstead, UK).

[2] = test system: Pseudomonas aeruginosa ATCC27853
Experimental: as §1, §2

[3] = test system: Escherichia coli ATCC25922
Experimental: as §1, §2

[4] = test system: Enterococcus faecalis ATCC29212
Experimental: as §1, §2

[5] = test system: Lactococcus lactis IL1403
Experimental: as §1, §2

[6] = test system: Salmonella enterica serovar Typhimurium LT2; assay: microbe, parasite or virus in culture; conditions: LT2
Experimental: as §1, §2

[7] = test system: Aeromonas salmonicida ATCC33658; assay: microbe, parasite or virus in culture; conditions: ATCC33658
Experimental: as §1, §2

[8] = test system: Yersinia ruckeri 392/2003; assay: microbe, parasite or virus in culture
Experimental: as §1, §2

Sequence	MIC L. monocytogenes N22-2 [1]	MIC P. aeruginosa ATCC27853 [2]	MIC E. coli ATCC25922 [3]	MIC E. faecalis ATCC29212 [4]	MIC L. lactis IL1403 [5]	MIC S. Typhimurium [6]	MIC S. Typhimurium LT2 [6]	MIC A. salmonicida [7]	MIC A. salmonicida ATCC33658 [7]	MIC Y. ruckeri [8]	MIC Y. ruckeri 392/2003 [8]
GLRKRLRKFRNKIKEKLKKHGQKIQGLLPKLAPRTDY [Peptide 21]	16 µg/mL	8 µg/mL	32 µg/mL	≥64 µg/mL	32 µg/mL	2 µg/mL	8 µg/mL	2 µg/mL	4 µg/mL	8 µg/mL	16 µg/mL
GLRKRLRKFRNKIKEKLKKICQKIQGLLPKLAPRTDY [Peptide 23]	16 µg/mL	32 µg/mL	16 µg/mL	32 µg/mL	≥64 µg/mL	8 µg/mL	16 µg/mL	4 µg/mL	16 to 32 µg/mL	4 µg/mL	16 µg/mL
GLRKRLRKFRNKIKEKLKKIGQKCQGLLPKLAPRTDY [Peptide 25]	16 µg/mL	16 µg/mL	16 µg/mL	64 µg/mL	≥64 µg/mL	4 µg/mL	8 to 16 µg/mL	4 µg/mL	4 to 8 µg/mL	4 µg/mL	16 µg/mL
GLRKRLRKFRNKIKEKLKKIGQKGQGLLPKLAPRTDY [Peptide 27]	32 µg/mL	16 µg/mL	≥64 µg/mL	≥64 µg/mL	≥64 µg/mL	4 µg/mL	8 to 16 µg/mL	8 µg/mL	8 µg/mL	16 µg/mL	32 µg/mL
GLRKRLRKFRNKIKEKLKKIGQKIQGPLPKLAPRTDY [Peptide 31]	32 µg/mL	8 µg/mL	≥64 µg/mL	≥64 µg/mL	32 µg/mL	4 µg/mL	8 µg/mL	16 µg/mL	16 µg/mL	16 µg/mL	32 µg/mL
GLRKRLRKFRNKIKEKLKKIGQKIQTLLPKLAPRTDY [Peptide 30]	4 µg/mL	8 µg/mL	4 to 8 µg/mL	8 µg/mL	2 µg/mL	–	4 to 8 µg/mL	–	4 µg/mL	–	2 to 4 µg/mL
GLRKRLRKFRNKIKEKLKKIGQKSQGLLPKLAPRTDY [Peptide 29]	16 to 32 µg/mL	8 to 16 µg/mL	32 to 64 µg/mL	≥64 µg/mL	32 µg/mL	4 µg/mL	8 µg/mL	8 µg/mL	8 µg/mL	16 µg/mL	16 µg/mL
GLRKRLRKFRNKIKEKLKKILQKIQGLLPKLAPRTDY [Peptide 24]	16 µg/mL	16 µg/mL	16 µg/mL	16 µg/mL	≥64 µg/mL	8 µg/mL	16 µg/mL	4 µg/mL	16 µg/mL	4 µg/mL	16 µg/mL
GLRKRLRKFRNKIKEKLKKNGQKIQGLLPKLAPRTDY [Peptide 22]	16 to 32 µg/mL	8 to 16 µg/mL	≥64 µg/mL	≥64 µg/mL	≥64 µg/mL	4 µg/mL	8 to 16 µg/mL	4 µg/mL	16 µg/mL	16 µg/mL	≥64 µg/mL
GLRKRLRKFRNKIKEKLPKIGQKIQGLLPKLAPRTDY [Peptide 19]	32 to 64 µg/mL	16 µg/mL	8 to 16 µg/mL	≥64 µg/mL	32 µg/mL	4 µg/mL	4 µg/mL	2 µg/mL	2 to 4 µg/mL	–	32 µg/mL
GLRKRLRKFRNKIKELLKKIGQKIQGLLPKLAPRTDY [Peptide 13]	8 to 16 µg/mL	16 to 32 µg/mL	16 µg/mL	16 µg/mL	≥64 µg/mL	4 µg/mL	16 µg/mL	4 µg/mL	16 µg/mL	4 µg/mL	16 µg/mL
GLRKRLRKFRNKIKEMLKKIGQKIQGLLPKLAPRTDY [Peptide 14]	16 µg/mL	16 to 32 µg/mL	16 µg/mL	32 µg/mL	≥64 µg/mL	4 µg/mL	16 µg/mL	4 µg/mL	8 to 16 µg/mL	4 µg/mL	8 to 16 µg/mL
GLRKRLRKFRNKIKEYLKKIGQKIQGLLPKLAPRTDY [Peptide 15]	8 to 16 µg/mL	16 µg/mL	16 µg/mL	16 µg/mL	≥64 µg/mL	8 µg/mL	16 µg/mL	4 µg/mL	16 µg/mL	8 µg/mL	8 to 16 µg/mL
GLRKRLRKFRNKMKEKLKKIGQKIQGLLPKLAPRTDY [Peptide 6]	4 µg/mL	8 to 16 µg/mL	8 to 16 µg/mL	8 to 16 µg/mL	2 µg/mL	–	8 µg/mL	–	4 µg/mL	–	4 µg/mL
